*1 amine or outer side, *2 acyl side, *3 side chain or, on linkers, in order; H or OH if unused. Where a SMILES comes first, the peptide text is derived from it. Bridges are numbered along the chain shown (N, C = ends). [ ]: non-standard residue; d: D form. The star is where a group is joined. X11 = O=C(O)CN1CCN(CC(=O)O)CCN([C@H](CCC(=O)*)C(=O)O)CC1; DOTA = O=C(O)CN1CCN(CC(=O)O)CCN(CC(=O)*)CCN(CC(=O)O)CC1; X9 = O=C(C1CCC[C@H]1C(=O)[*:2])[C@@H]1CCCN1[*:1]; X8 = NCCNCC(CNCCN)C(=O)NCCCOCCOCCOCCCN*; Suc = O=C(CCC(=O)[*:2])[*:1]; β3hK = NCCCC[C@H](N)CC(=O)O; Nle = CCCC[C@H](N)C(=O)O; X3 = NCCNCC(CNCCN)C(=O)*; Hexanoyl = CCCCCC(=O)*; CO = O=C([*:1])[*:2]; βAla = NCCC(=O)O; NHBu = CCCCN*

The target in assay [1] is T1, FAP-expressing human WI-38 fibroblasts (Homo sapiens, UniProt Q12884).
T1 construct: FAP-expressing human WI-38 fibroblasts (ECACC) were cultured in EMEM; host or cells: WI-38 human fibroblasts
In words: Competitive FACS binding assay.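 Note: flow cytometry read-out of median Cy5 fluorescence on the cells, plotted versus test compound concentration, with IC50 derived by four-parameter logistic curve fitting.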 As to conditions: competition with 3 nM Cy5-labeled compound, WI-38 fibroblasts, 4° C., 1 hour; read-out: pIC50 Category (FACS) (converted).

Another assay deals with T2, Recombinant human FAP (Homo sapiens, UniProt Q12884).
T2 construct: purchased R&D systems 3715-SE
Description: FRET-based FAP protease activity assay. The format is biochemical. As to conditions: recombinant human FAP, FRET-peptide substrate, 37° C.; read-out: pIC50 Category (Activity) (converted).

T1 sequence (Q12884 whole entry): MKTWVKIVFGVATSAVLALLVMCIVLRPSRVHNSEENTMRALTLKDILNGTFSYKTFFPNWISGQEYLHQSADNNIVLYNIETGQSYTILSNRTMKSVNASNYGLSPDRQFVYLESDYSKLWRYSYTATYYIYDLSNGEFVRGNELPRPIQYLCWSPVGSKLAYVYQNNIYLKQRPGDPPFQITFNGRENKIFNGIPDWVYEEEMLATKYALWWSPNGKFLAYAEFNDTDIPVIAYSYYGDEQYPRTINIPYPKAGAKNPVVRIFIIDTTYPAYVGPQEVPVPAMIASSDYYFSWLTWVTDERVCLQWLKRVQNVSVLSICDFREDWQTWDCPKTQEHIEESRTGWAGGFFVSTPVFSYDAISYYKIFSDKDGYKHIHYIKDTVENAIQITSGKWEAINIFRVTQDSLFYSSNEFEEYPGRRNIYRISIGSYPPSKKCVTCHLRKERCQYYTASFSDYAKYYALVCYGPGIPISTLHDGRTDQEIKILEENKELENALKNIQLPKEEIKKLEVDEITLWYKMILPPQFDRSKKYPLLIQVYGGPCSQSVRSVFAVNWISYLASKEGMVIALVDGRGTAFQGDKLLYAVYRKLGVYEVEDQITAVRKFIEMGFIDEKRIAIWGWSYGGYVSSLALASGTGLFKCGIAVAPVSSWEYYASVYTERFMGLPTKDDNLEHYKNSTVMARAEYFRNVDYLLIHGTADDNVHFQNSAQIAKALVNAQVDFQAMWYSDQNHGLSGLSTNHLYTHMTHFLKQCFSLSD
T2 sequence (Q12884 26-760 limits assumed): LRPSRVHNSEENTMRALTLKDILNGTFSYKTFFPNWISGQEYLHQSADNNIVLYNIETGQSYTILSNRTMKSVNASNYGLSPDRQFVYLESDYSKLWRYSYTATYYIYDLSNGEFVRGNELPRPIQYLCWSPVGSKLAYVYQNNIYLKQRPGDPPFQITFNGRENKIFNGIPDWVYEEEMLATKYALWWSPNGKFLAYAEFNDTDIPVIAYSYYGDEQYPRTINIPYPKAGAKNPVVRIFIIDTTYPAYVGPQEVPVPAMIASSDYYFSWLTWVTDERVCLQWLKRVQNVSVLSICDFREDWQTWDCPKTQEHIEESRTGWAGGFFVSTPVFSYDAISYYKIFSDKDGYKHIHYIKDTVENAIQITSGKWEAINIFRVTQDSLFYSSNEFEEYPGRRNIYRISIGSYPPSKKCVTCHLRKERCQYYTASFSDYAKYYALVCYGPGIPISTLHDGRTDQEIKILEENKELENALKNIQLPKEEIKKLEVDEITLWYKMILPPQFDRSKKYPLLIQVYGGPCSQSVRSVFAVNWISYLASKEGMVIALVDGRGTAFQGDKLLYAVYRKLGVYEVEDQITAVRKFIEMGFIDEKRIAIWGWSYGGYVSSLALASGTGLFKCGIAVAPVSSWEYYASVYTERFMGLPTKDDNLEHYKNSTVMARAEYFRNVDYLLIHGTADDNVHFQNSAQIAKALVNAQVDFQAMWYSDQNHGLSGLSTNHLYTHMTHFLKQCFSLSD

`CCCCCC(=O)N[C@H]1CSSC[C@@H](C(=O)N[C@@H](CCCCNC(=O)CN2CCN(CC(=O)O)CCN(CC(=O)O)CCN(CC(=O)O)CC2)CC(=O)O)NC(=O)[C@H](Cc2ccccc2)NC(=O)[C@H](CCC(=O)O)NC(=O)[C@H]([C@@H](C)O)NC(=O)[C@@H]2CCCN2C(=O)[C@@H]2CCCN2C1=O` [Compound 1012, Hex-[Cys-Pro-Pro-Thr-Glu-Phe-Cys]-Bhk(DOTA)-OH] (Hexanoyl-CPPTEFC[β3hK](DOTA)-OH; disulfide 1-7): the IC50 (in assay [1]; on Recombinant human FAP) was below 100 nM in each case.

As for `CCCCCC(=O)N[C@H]1CSSC[C@@H](C(=O)N[C@@H](CC(=O)O)C(=O)N[C@@H](CCCCNC(=O)CN2CCN(CC(=O)O)CCN(CC(=O)O)CCN(CC(=O)O)CC2)C(N)=O)NC(=O)[C@H](Cc2ccccc2)NC(=O)[C@H](CCC(=O)O)NC(=O)[C@H]([C@@H](C)O)NC(=O)[C@@H]2CCCN2C(=O)[C@@H]2CCCN2C1=O` [Compound 1013, Hex-[Cys-Pro-Pro-Thr-Glu-Phe-Cys]-Asp-Lys(DOTA)-NH2] (Hexanoyl-CPPTEFCDK(DOTA)-NH2; disulfide 1-7), the IC50 (in assay [1]; at Recombinant human FAP) was below 100 nM each time.

For the compound `CCCCNC(=O)N[C@H]1CSSC[C@@H](C(=O)N[C@@H](CCCCNC(=O)CN2CCN(CC(=O)O)CCN(CC(=O)O)CCN(CC(=O)O)CC2)CC(=O)O)NC(=O)[C@H](Cc2ccccc2)NC(=O)[C@H](CCC(=O)O)NC(=O)[C@H]([C@@H](C)O)NC(=O)[C@@H]2CCCN2C(=O)[C@@H]2CCCN2C1=O` [Compound 1014, Buur-[Cys-Pro-Pro-Thr-Glu-Phe-Cys]-Bhk(DOTA)-OH] ({NHBu-CO}-CPPTEFC[β3hK](DOTA)-OH; disulfide 1-7), the IC50 (in assay [1]; at Recombinant human FAP) was below 100 nM throughout.

Turning to `CCCCCC(=O)N[C@H]1CSSC[C@@H](C(=O)N[C@@H](CC(=O)O)C(=O)N[C@@H](CCCCNC(=O)CN2CCN(CC(=O)O)CCN(CC(=O)O)CCN(CC(=O)O)CC2)C(N)=O)NC(=O)[C@H](Cc2ccccc2)NC(=O)[C@H](CCC(N)=O)NC(=O)[C@H]([C@@H](C)O)NC(=O)[C@@H]2CCCN2C(=O)[C@@H]2CCCN2C1=O` [Compound 1016, Hex-[Cys-Pro-Pro-Thr-Gln-Phe-Cys]-Asp-Lys(DOTA)-NH2] (Hexanoyl-CPPTQFCDK(DOTA)-NH2; disulfide 1-7), the IC50 (in assay [1]; at Recombinant human FAP) was below 100 nM each time.

Take `CCCC[C@H](NC(=O)CCC(=O)NCCCOCCOCCOCCCNC(=O)CC[C@H](C(=O)O)N1CCN(CC(=O)O)CCN(CC(=O)O)CC1)C(=O)N[C@H]1CSSC[C@@H](C(=O)NCCC(=O)O)NC(=O)[C@H](Cc2ccccc2)NC(=O)[C@H](CCC(N)=O)NC(=O)[C@H]([C@@H](C)O)NC(=O)[C@@H]2CCCN2C(=O)[C@@H]2CCCN2C1=O` [Compound 1018, NODAGA-Ttds-Nle-[Cys-Pro-Pro-Thr-Gln-Phe-Cys]-Bal-OH]: the IC50 (in assay [1]; on Recombinant human FAP) was below 100 nM each time.

As for `CCCC[C@H](NC(=O)CCC(=O)NCCCOCCOCCOCCCNC(=O)C(CNCCN)CNCCN)C(=O)N[C@H]1CSSC[C@@H](C(=O)NCCC(=O)O)NC(=O)[C@H](Cc2ccccc2)NC(=O)[C@H](CCC(N)=O)NC(=O)[C@H]([C@@H](C)O)NC(=O)[C@@H]2CCCC2C(=O)[C@@H]2CCCN2C1=O` (stereo partly drawn) [Compound 1019, N4Ac-Ttds-Nle-[Cys-Pro-Pro-Thr-Gln-Phe-Cys]-Bal-OH] ({X8-Suc}-[Nle]C[X9]TQFC[βAla]-OH; disulfide 2-7), the IC50 (in assay [1]; on Recombinant human FAP) was below 100 nM each time.

Take `CCCCCC(=O)N[C@H]1CSSC[C@@H](C(=O)N[C@@H](CC(=O)O)C(=O)N[C@@H](CCCCNC(=O)CC[C@H](C(=O)O)N2CCN(CC(=O)O)CCN(CC(=O)O)CC2)C(N)=O)NC(=O)[C@H](Cc2ccccc2)NC(=O)[C@H](CCC(=O)O)NC(=O)[C@H]([C@@H](C)O)NC(=O)[C@@H]2CCCN2C(=O)[C@@H]2CCCN2C1=O` [Compound 1020, Hex-[Cys-Pro-Pro-Thr-Glu-Phe-Cys]-Asp-Lys(NODAGA)-NH2] (Hexanoyl-CPPTEFCDK(X11)-NH2; disulfide 1-7): the IC50 (in assay [1]; on Recombinant human FAP) was below 100 nM in each case.

Turning to `CCCCCC(=O)N[C@H]1CSSC[C@@H](C(=O)N[C@@H](CC(=O)O)C(=O)N[C@@H](CCCCNC(=O)C(CNCCN)CNCCN)C(N)=O)NC(=O)[C@H](Cc2ccccc2)NC(=O)[C@H](CCC(=O)O)NC(=O)[C@H]([C@@H](C)O)NC(=O)[C@@H]2CCCN2C(=O)[C@@H]2CCCN2C1=O` [Compound 1021, Hex-[Cys-Pro-Pro-Thr-Glu-Phe-Cys]-Asp-Lys(N4Ac)—NH2] (Hexanoyl-CPPTEFCDK(X3)-NH2; disulfide 1-7), the IC50 (in assay [1]; on Recombinant human FAP) was below 100 nM in each case.

Source of the values: US20240115745A1, “COMPOUNDS COMPRISING A FIBROBLAST ACTIVATION PROTEIN LIGAND AND USE THEREOF” (3B PHARMACEUTICALS GMBH, priority 2021, published 2024).
